Reference: US4751235A, “Anti-atherosclerotic indolizine derivatives” (Sandoz Pharm. Corp., priority 1986, dated 1988)
Counter-ions that a name gives are not always drawn.

Tests used:
[1] = test system: 3 β-hydroxysterol synthesis; experiment: Test B. In Vivo Cholesterol Biosynthesis Inhibition Test; settings: Rattus norvegicus, rats, oral administration, read-out: ED50 (dose producing 50% inhibition of 3 β-hydroxysterol synthesis)
Experimental: Test B. In Vivo Cholesterol Biosynthesis Inhibition Test: This test is also known and is carried out as described on pages 60-61 of said application Ser. No. 06/741,903 and on page 33 of World (PCT) Published Patent Application No. 84/02131, both of which are hereby incorporated by reference as if set forth herein in their entirety.

[2] = target: T1, HMG-CoA reductase (Rattus norvegicus, UniProt P51639); experiment: Test A. In Vitro Microsomal Assay of HMG-CoA Reductase Inhibition; type: biochemical; settings: read-out: IC50 (concentration producing 50% inhibition of HMG-CoA reductase activity)
T1 construct: from tissue; host or cells: microsomes (printed); rat liver by own knowledge of the cited method
T1 sequence (P51639 1-887): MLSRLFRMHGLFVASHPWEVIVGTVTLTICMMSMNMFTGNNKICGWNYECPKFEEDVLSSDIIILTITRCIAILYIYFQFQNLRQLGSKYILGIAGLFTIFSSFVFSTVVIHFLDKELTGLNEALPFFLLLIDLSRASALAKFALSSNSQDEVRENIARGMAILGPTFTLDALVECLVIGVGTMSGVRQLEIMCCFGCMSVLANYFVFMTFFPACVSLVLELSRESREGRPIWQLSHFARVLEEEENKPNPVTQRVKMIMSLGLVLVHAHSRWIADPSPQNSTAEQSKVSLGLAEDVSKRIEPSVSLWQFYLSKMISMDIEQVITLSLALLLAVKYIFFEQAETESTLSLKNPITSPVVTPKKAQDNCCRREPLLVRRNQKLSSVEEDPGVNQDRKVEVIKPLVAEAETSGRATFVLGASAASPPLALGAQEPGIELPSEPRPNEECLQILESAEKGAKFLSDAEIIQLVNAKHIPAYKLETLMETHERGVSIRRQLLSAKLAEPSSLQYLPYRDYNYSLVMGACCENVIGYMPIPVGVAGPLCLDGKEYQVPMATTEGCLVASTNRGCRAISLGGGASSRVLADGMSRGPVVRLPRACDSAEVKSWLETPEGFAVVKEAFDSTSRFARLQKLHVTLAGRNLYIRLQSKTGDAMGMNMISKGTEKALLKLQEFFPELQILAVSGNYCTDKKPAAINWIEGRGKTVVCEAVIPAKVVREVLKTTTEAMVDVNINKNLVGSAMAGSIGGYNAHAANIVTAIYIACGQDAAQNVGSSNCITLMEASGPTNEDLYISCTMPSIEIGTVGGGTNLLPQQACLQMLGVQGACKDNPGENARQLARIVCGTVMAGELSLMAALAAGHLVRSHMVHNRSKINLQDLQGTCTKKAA
Experimental: Test A. In Vitro Microsomal Assay of HMG-CoA Reductase Inhibition:
This test is known and is carried out as described on pages 59-60 of application Ser. No. 06/741,903 (filed June 6, 1985) and on page 30 of World (PCT) Published Patent Application No. 84/02131 both of which are hereby incorporated by reference as if set forth herein in their entirety. The concentration of the test substance (compound of Formula I) in the assay system is 0.0005-2,000 μmolar. The obtained IC50 is the concentration of the test substance in the assay system observed or calculated to produce a 50% inhibition of HMG-CoA reductase activity.

IC50 [2]	Compound	ED50 [1]
	CCOC(=O)C[C@H](O)C[C@H](O)/C=C/c1c(C(C)C)c2ccccn2c1-c1ccc(F)cc1 (relative stereo) [Example 1, 7-[3-(4-fluorophenyl)-1-(1-methylethyl)-2-indolizinyl]-3,5,-dihydroxy-6-heptenoic acid, ethyl ester (trans)]	0.05 mg/kg
11 nM	CC(C)c1c(/C=C/[C@@H](O)C[C@@H](O)CC(=O)O)c(-c2ccc(F)cc2)n2ccccc12 (relative stereo) [Example 2, 7-[3-(4-fluorophenyl)-1-(1-methylethyl)-2-indolizinyl]-3,5,-dihydroxy-6-heptenoic acid, sodium salt (trans)]	
	CC[C@H](C)C(=O)O[C@H]1CCC=C2C=C[C@H](C)[C@H](CC[C@@H]3C[C@@H](O)CC(=O)O3)[C@H]21 [Compactin]	3.5 mg/kg
	CC[C@H](C)C(=O)O[C@H]1C[C@@H](C)C=C2C=C[C@H](C)[C@H](CC[C@@H]3C[C@@H](O)CC(=O)O3)[C@H]21 [Mevinolin]	0.41 mg/kg
